10 compounds from ChEMBL document CHEMBL1143454, “Arylphthalazines: identification of a new phthalazine chemotype as inhibitors of VEGFR kinase” (Bioorg Med Chem Lett, 2005) can be followed below.

The target of assay [1] is Vascular endothelial growth factor receptor 2 (Homo sapiens, UniProt P35968). Nature of the assay: Inhibition of Vascular endothelial growth factor receptor 2 kinase phosphorylation of pGAT-biotin peptide.
For assay [2], the target named is Vascular endothelial growth factor receptor 1 (Homo sapiens) (UniProt P17948). Nature of the assay: Percent inhibition of Vascular endothelial growth factor receptor 1 at 10 uM.
Vascular endothelial growth factor receptor 1 (Homo sapiens), sequence (P17948 whole entry): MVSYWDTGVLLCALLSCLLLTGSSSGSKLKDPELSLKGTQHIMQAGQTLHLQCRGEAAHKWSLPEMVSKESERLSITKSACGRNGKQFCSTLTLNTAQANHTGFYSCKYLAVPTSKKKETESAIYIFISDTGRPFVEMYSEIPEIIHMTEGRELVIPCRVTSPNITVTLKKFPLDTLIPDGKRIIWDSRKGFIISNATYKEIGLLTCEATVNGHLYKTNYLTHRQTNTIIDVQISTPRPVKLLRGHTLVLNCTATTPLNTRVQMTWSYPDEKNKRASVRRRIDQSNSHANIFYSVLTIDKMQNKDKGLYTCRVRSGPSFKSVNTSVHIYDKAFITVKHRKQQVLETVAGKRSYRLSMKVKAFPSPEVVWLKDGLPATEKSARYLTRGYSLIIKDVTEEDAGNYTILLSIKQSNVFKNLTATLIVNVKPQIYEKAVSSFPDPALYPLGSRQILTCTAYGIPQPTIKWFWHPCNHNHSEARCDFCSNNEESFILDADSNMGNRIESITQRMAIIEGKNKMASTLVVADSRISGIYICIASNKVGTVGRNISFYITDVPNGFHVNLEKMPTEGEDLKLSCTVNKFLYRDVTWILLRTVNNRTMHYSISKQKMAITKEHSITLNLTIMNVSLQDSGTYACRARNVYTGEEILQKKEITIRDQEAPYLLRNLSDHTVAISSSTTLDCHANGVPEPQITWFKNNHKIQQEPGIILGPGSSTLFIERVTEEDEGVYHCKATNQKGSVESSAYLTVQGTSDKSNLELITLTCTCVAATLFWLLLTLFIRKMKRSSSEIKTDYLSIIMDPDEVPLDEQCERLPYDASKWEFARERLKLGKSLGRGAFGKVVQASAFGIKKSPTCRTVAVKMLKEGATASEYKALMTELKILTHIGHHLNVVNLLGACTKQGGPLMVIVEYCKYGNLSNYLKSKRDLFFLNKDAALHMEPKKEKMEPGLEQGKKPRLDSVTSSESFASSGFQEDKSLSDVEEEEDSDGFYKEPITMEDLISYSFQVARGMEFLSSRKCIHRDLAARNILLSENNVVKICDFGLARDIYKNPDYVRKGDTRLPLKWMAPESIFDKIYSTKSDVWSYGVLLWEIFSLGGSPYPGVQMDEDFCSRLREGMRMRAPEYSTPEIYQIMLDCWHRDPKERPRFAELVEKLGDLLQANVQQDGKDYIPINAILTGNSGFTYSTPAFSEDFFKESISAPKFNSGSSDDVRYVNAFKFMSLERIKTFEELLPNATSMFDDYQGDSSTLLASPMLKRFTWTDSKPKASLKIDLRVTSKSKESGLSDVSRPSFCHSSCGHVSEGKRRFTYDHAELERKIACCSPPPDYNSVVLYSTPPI

Vascular endothelial growth factor receptor 2, sequence (P35968 whole entry): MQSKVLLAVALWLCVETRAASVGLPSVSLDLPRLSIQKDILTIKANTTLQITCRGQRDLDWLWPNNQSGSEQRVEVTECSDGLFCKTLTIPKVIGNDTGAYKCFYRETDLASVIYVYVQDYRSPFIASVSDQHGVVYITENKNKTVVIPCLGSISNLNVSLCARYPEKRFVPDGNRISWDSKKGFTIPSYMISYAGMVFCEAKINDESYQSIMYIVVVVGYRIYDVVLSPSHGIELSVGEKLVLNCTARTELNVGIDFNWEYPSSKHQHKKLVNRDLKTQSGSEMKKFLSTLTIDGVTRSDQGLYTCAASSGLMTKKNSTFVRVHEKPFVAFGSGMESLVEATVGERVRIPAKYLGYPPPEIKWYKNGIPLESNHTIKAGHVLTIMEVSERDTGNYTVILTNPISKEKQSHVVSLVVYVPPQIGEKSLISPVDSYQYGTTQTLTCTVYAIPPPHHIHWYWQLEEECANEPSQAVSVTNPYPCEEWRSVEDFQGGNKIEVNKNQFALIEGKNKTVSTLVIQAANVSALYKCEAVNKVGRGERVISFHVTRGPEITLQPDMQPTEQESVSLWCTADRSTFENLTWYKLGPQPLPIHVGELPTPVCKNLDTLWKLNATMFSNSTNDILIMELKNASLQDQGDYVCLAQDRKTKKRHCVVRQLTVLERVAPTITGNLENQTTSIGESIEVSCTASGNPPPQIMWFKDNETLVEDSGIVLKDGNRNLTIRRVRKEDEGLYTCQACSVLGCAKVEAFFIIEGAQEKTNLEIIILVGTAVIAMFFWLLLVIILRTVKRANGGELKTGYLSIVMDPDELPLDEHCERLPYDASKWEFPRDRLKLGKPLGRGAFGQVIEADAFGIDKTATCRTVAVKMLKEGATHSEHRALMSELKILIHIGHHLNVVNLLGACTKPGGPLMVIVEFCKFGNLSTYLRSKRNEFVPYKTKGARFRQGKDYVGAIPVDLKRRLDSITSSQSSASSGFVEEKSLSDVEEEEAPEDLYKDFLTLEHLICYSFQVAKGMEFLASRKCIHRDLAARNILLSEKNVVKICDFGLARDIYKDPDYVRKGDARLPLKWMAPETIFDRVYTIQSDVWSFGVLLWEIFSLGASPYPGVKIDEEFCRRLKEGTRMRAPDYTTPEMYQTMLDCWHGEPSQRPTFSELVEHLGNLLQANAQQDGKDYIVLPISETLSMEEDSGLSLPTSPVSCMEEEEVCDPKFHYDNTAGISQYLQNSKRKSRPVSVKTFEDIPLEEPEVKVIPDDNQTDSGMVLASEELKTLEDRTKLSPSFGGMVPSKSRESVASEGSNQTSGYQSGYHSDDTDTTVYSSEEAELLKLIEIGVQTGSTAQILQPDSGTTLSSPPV

In assay [1], `O=C(NCCO)c1ccc(-c2nnc(Nc3ccc(OC(F)(F)Cl)cc3)c3ccccc23)cc1` registered an IC50 of 1.1 µM. On the same count and under the same terms, for `COc1ccc(Nc2nnc(-c3ccc(C(N)=O)cc3)c3ccccc23)cc1` the value was 2 µM. On to `CC(C)(C)NC(=O)c1ccc(-c2nnc(Nc3ccc(OC(F)(F)Cl)cc3)c3ccccc23)cc1`, for which the IC50 in assay [1] was above 10 µM. The compound `NC(=O)c1ccc(-c2nnc(Nc3ccc(S(N)(=O)=O)cc3)c3ccccc23)cc1` had an IC50 in assay [1] above 10 µM.

Compound `CC(C)(C)c1cccc(Nc2nnc(-c3ccc(C(N)=O)cc3)c3ccccc23)c1` returned an inhibition in assay [2] of 60%. `Cc1ccc(-c2nnc(Nc3ccc(OC(F)(F)Cl)cc3)c3ccccc23)cc1S(=O)(=O)NC(C)C` registered a half-inhibitory concentration (IC50) in assay [1] above 10 µM. On to `NC(=O)c1ccc(-c2nnc(Nc3cccc(Br)c3)c3ccccc23)cc1`, for which the inhibition in assay [2] is 51%.

In assay [2], `NC(=O)c1ccc(-c2nnc(Nc3ccc(Br)cc3)c3ccccc23)cc1` yielded an inhibition of 53%. In the case of `CCOc1ccc(-c2nnc(Nc3ccc(C)cc3)c3ccccc23)cc1`, in assay [1], the IC50 is above 10 µM. `CC(C)(C)c1ccc(Nc2nnc(-c3ccc(C(N)=O)cc3)c3ccccc23)cc1` came in with an inhibition in assay [2] of 73%.

For orientation: IC50 means the midpoint of a concentration-inhibition curve. The inhibition is the change of the read-out against control, counted positive when it falls. Low readings indicate a weak effect, high ones a strong effect.
